Measurements published in patent US6991804B2, “Delivery systems for periadventitial delivery for treatment of restenosis and anastomotic intimal hyperplasia” (Edwards Lifesciences Corporation, priority 2000, dated 2006).
Marks after values point to notes of the source that are not given here.

Tests used:
[1] = post-surgery
Method: Animals received standard laboratory diet proscribed in QCOP B618, with supplements provided at the discretion of a veterinarian; water was available ad libitum.
Post-operative care was performed as described in QCOP B809, along with prophylactic administration of antibiotics (Sulfamethoxaxole and Trimethoprin); analgesics were supplied as described in QCOP B803. 7 days post surgery, animals received 250 mg/day aspirin. The wound site was debrided and temperature, heart rate and respiratory rates were monitored daily the week following surgery. Angiography of the carotid sites was performed following surgery and monthly thereafter. Intravascular ultrasound (IVUS) was used to examine the vein grafts in 10 animals at the 12 week endpoint of the study.

[2] = test system: Balloon-injured Femoral Arteries; assay: Balloon-injured femoral arteries: morphometric analysis of histology (media, intima, lumen area); type: in vivo, Dogs
Method: (§1) Balloon injury to the femoral arteries by three sequences of inflation and removal of a 4 Fr. Fogarty catheter generated 5 cm lesions in each femoral artery that were or were not treated with test/control articles. Injured areas were tagged with a staple. The insertion site was repaired and the animal was closed.
Carotid arteries were exposed and the healing response was evaluated. The grafts, including anastomoses, were fixed under pressure in situ, and were removed along with 4 cm of proximal and distal host vessel. Femoral arteries were exposed and the healing response was observed. The femoral arteries were then fixed under pressure and removed with distal and proximal host tissue. Femoral and carotid arteries were stored in 10% neutral-buffered formalin until analysis by histology. Specimens for histological evaluation were processed and stained with Hematoxalin and Eosin and with Mallory's Trichrome by IDEXX Veterinary Services, West Sacramento, Calif.
Histology of the femoral arteries was analyzed with Adobe Photoshop. Briefly, (1) the lumen-vessel interface, (2) the internal elastic lamina, and (3) the external elastic lamina were traced on digital images from H&E stained tissue with the greatest amount of hyperplasia. The intimal area was determined by subtracting the area encompassing […]. The medial area was determined by subtracting the area encompassing (2) from (3). The area was measured as (1).
Histology of sections from areas spanning proximal and distal regions of the balloon-injured femorals and of native tissue proximal to the arteriotomy were evaluated by morphometric analysis as described above.

Carotid Vein Grafts = assay: Carotid vein grafts (femoral vein interposition, end-to-side anastomoses): percent stenoses of anastomoses by angiography; type: in vivo, Dogs
Method: The animal was heparinized (100 IU/kg body weight), and anticoagulated at the surgeon's discretion with additional heparin. The carotid artery was cross-clamped and transected. An interpositional graft with end-to-side anastamoses of the femoral vein to the carotid artery was performed. Anastomoses were identified with a surgical staple. Where indicated, the test or control articles were applied to a uniform thickness and allowed to harden. Grafts were placed in both carotid arteries, with the procedures done in series.
Image analysis was performed by a qualified vascular surgeon who also analyzed the data. REF Images from angiography were captured on a VHS tape. Digital images were captured from this tape and saved after which they were evaluated using NIH Image. The lumenal width of the native arterial segments proximal and distal to the vein grafts, and the proximal and distal anastomoses were measured. The percent stenoses of the anastomoses relative to the adjacent native arterial segment were reported.
Images were captured as described in section above, and were evaluated by NIH Image. The lumenal width of native arterial segments proximal and distal to the graft and the proximal and distal anastomoses were measured.

[3] = test system: Balloon-injured Femoral Arteries; assay: Balloon-injured femoral arteries: lumenal width by angiography; type: in vivo, Dogs; settings: 12 weeks
Method: as §1
Angiography of the femoral arteries was performed at the termination of the experiment. Images were captured as described above and analyzed using NIH Image. Injured areas were identified by radio-opaque clips, and by anatomy. The lumenal widths of the arterial segments were measured just distal to the arteriotomy, and in the mid- and distal portions of the injured segments. The percent stenoses of the anastomoses relative to the adjacent native arterial segment were reported. The mean and least values were reported.
Images from angiography were captured and analyzed as described previously. The lumenal widths of the arterial segments were measured immediately distal to the arteriotomy, and in the mid- and distal portions of the injured segments.

[4] = histology, 12 weeks, pooled Paclitaxel groups (4 dogs, 8 vessels)
[5] = angiography, 12 weeks, pooled Paclitaxel groups (4 dogs, 8 vessels)
[6] = pooled Paclitaxel groups (4 dogs, 8 vessels)

- Subcutaneous hematomas at the carotid site (animals affected/animals) ([1]; lesions resolved with time): 4/8
- Hematoma at the femoral site (animals affected/animals) ([1]; reduced in size with time and healed well): 2/8
Compound: CC(=O)O[C@H]1C(=O)[C@@]2(C)[C@H]([C@H](OC(=O)c3ccccc3)[C@]3(O)C[C@H](OC(=O)[C@H](O)[C@@H](NC(=O)c4ccccc4)c4ccccc4)C(C)=C1C3(C)C)[C@]1(OC(C)=O)CO[C@@H]1C[C@@H]2O [Paclitaxel ®, paclitaxel]
- Intima area of femoral artery in regions of intimal hyperplasia ± Paclitaxel (Mean ± s.d.) [2, 4]: 1.95 ± 1.00 mm^2
- Intima: Media Ratio ± Paclitaxel [2, 4]: 0.56 ± 0.23
- Lumen area of femoral artery in regions of intimal hyperplasia ± Paclitaxel (Mean ± s.d) [2, 4]: 4.98 ± 1.05* mm^2
- Media area of femoral artery in regions of intimal hyperplasia ± Paclitaxel (Mean ± s.d.) [2, 4]: 3.38 ± 0.84 mm^2
- Change in intimal: medial ratio (statement in words) ([2]; morphometric analysis of histology, femoral sections): absence of changes
- Larger lumen width versus no Paclitaxel ([2]; morphometric analysis of histology, femoral sections with largest stenotic response, p</=0.06): 44%
- Stenosis at anastomotic sites of carotid grafts (statement in words) (Carotid Vein Grafts; angiography at the 12 week endpoint): limited stenosis at the proximal and distal anastomotic sites
- Per Cent Stenoses of Carotid Grafts ± Paclitaxel, Distal Anastomotic Site (mean ± s.d.) (Carotid Vein Grafts; [5]): 1.1 ± 2.2%
- Per Cent Stenoses of Carotid Grafts ± Paclitaxel, Proximal Anastomotic Site (mean ± s.d) (Carotid Vein Grafts; [5]): 5.9 ± 6.5%
- Difference between control, vehicle and Paclitaxel treatment groups in femoral lumenal width (statement in words) [3]: no significant difference
- Least Lumenal Width of Balloon-Injured Segments Relative to Native Vessel ± Paclitaxel (Mean ± s.d) [3, 6]: 1.32 ± 0.47 mm
- Men Lumenal Width of Balloon-Injured Segments Relative to Native Vessel ± Paclitaxel (Mean ± s.d.) [3, 6]: 1.52 ± 0.24 mm
